From patent US8901086B2, “Compositions including triciribine and methods of use thereof” (University of South Florida, priority 2004, dated 2014)

Legend:
MCF7 cells = assay: Western blot of Akt pathway after mTOR inhibitor; assay type: cell-based; details: 24 hour time course
Method: The upper panels (A) show western blots of OV3 cell lysates following the treatment with 1 nM mTOR inhibitor rapamycin for the time indicated. Membranes were probed with antibodies specific to phosphorylated isoforms and to the total protein for comparison of Akt, p70S6K and FKHRL 1. The lower panels (B) illustrate western blots of MCF7 cell lysates following treatment with the mTOR inhibitor RAD001 for the time indicated. Membranes were probed with antibodies specific to phosphorylated isoforms and to the total protein for comparison of Akt and p70S6K.
OV3 and MCF7 cells were treated with the mTOR inhibitors rapamycin and RAD001, respectively, over a 24 hour time course. Lysyates were resolved by SDS-PAGE and transferred to a membrane for western blotting. Membranes were probed with antibodies to phospho-Akt, total Akt, phospho-p70S6K, and total p70S6K. Membranes with lysates derived from OV3 cells were additionally probed with antibodies to phospho-FKHRL 1 and total FKHRL 1.

p70S6K = assay type: cell-based, human; details: 2 hours; trastuzumab 2 μg/ml, RAD001 0.4 nM
Method: Total cell lysates were collected, separated by SDS-PAGE and immunoblotted as indicated. […] The experiments were repeated at least twice to insure that results were reproducible.
(§1) SDS-PAGE and Immunoblot Analysis. Cells transfected with PTEN AS/NS oligonucleotides were treated as indicated.
(§2) Phosphorylation of Akt on Thr308 and Ser473 was analyzed as an indicator of Akt activity and mTOR activity was assessed by the phosphorylation of p70S6K (70-kDa ribosomal protein S6 kinase), an mTOR target.

Akt = assay type: cell-based, human; details: 2 hours; trastuzumab 2 μg/ml, triciribine 2.5 μM, RAD001 0.4 nM
Method: Total cell lysates were collected, separated by SDS-PAGE and immunoblotted as indicated.
as §1, §2

PKCα = PKCα (Homo sapiens, UniProt P17252); assay: PKCα activity, kinase assay and immunoblot; assay type: cell-based
Description: The immunoblots were detected with indicated antibodies. […] The kinase activity was quantified.

[1] = test system: H929 cells and U266 cells; assay: Survival of multiple myeloma derived cells; assay type: cell-based

SMILES: CO[C@H]1C[C@@H]2CC[C@@H](C)[C@@](O)(O2)C(=O)C(=O)N2CCCC[C@H]2C(=O)O[C@H]([C@H](C)C[C@@H]2CC[C@@H](OCCO)[C@H](OC)C2)CC(=O)[C@H](C)/C=C(\C)[C@@H](O)[C@@H](OC)C(=O)[C@H](C)C[C@H](C)/C=C/C=C/C=C/1C [RAD001, everolimus]
- activation of Akt pathway (MCF7 cells): rapid activation of Akt pathway
- phosphorylation of p70S6K (p70S6K): dramatically blocked
- phosphorylation of Akt on Thr308 and Ser473 (Akt): feedback activation of Akt

SMILES: Cn1cc(C2=C(c3cn(CCCSC(=N)N)c4ccccc34)C(=O)NC2=O)c2ccccc21 [Ro 31-8220]
- kinase activity of PKCα (PKCα): inhibited

SMILES: CC(C)C[C@H](NC(=O)[C@H](Cc1ccccc1)NC(=O)c1cnccn1)B(O)O [bortezomib]
- effect of API-2 on survival of myeloma cells [1]: synergistically enhances
